Data reported in patent publication US11124485B2, “Deoxyuridine triphosphatase inhibitors containing cyclopropano linkage” (CV6 Therapeutics (NI) Limited, priority 2015, dated 2021).

What was measured:
[1] = test system: colorectal (HCT116 and SW620) cell line models; test: MTS growth inhibition assay; format: cell-based; conditions: increasing concentrations of 5-FU between 0 and 100 μmol/L; both colorectal cancer cell lines
Procedure: The Cell Titer AQueous MTS assay (Promega) is carried out according to the manufacturers guidelines. […] The combination effect is determined by the combination index (CI) method utilizing Calcusyn software (Biosoft, Ferguson, Mo.). Fraction affected (FA) is calculated from the percent growth inhibition: FA=(100−% growth inhibition)/100.
Test compounds are evaluated for their antitumor activity in colorectal cancer cells using the MTS growth inhibition assay. HCT116 and SW620 cells are exposed to increasing concentrations of each agent for 72 hours and growth inhibition is directly compared to vehicle-treated controls. The NSCLC cell lines A549 and H1299 are exposed to increasing concentrations of each agent for 72 hours and growth inhibition is directly compared to vehicle-treated controls.
MTS growth inhibition assays are performed to evaluate the effectiveness of the test compounds alone and in combination with the fluoropyrimidine thymidylate synthase (TS) inhibitor 5-fluorouracil (5-FU) at inhibiting the growth of colorectal (HCT116 and SW620) cell line models. […] Simultaneous treatment with increasing concentrations of 5-FU and a test compound at fixed concentrations of 25 μmol/L is determined.

[2] = test system: colorectal (HCT116), breast (MCF-7) and non-small cell lung (H1299, A549, H358 and H460) cell line models; test: Colony forming assay; format: cell-based; conditions: increasing concentrations of FUdR between 0.5 and 2.5 μmol/L; all cell lines evaluated
Procedure: Colony forming assay showing the ability of colon (SW620, HCT116), non-small cell lung (A549, H460, H1299 and H358) and breast (MCF7) cancer cells to survive and proliferate following transient 24 hour exposure to test compounds, FUdR and combinations are determined. Specifically, cells are seeded at densities between 50 and 100 cells/well in 24-well plates. Twenty-four hours later, cells are treated with increasing concentrations of a test compound, a fixed dose of FUdR and combinations of these. After 24 hours, drug is removed, cells are rinsed and allowed to outgrow for 10-14 days. At the conclusion of the outgrowth, cells are fixed in 60% ice cold methanol and stained with 0.1% crystal violet, scanned and counted. Data is presented as percentage of untreated controls (mean±SD). Fraction affected and combination indexes are calculated according to the method of Chou and Talalay where <1 is indicative of a synergistic drug interaction.
Colony forming assays are performed to evaluate the effectiveness of test compounds alone and in combination with the fluoropyrimidine thymidylate synthase (TS) inhibitor fluorodeoxyuridine (FUdR) at reducing cancer cell viability in colorectal (HCT116), breast (MCF-7) and non-small cell lung (H1299, A549, H358 and H460) cell line models. […]

Compound | growth inhibition [1] | colonies formed [2]
O=c1[nH]cc(F)c(=O)[nH]1 [Compound 5-FU, 5-fluorouracil] | dose-dependent increases in growth inhibition | 
O=c1[nH]c(=O)n([C@H]2C[C@H](O)[C@@H](CO)O2)cc1F [FUdR, fluorodeoxyuridine] |  | dose-dependent decreases in colonies formed
